Laboratory results: patent US9783838B2, “PmST3 enzyme for chemoenzymatic synthesis of alpha-2-3-sialosides” (The Regents of the University of California, priority 2012, dated 2017)
Read-outs that look alike come from different tables or passages of the source.

What was measured:
PmST3Δ35-His6 [1] = target: T1, PmST3Δ35-His6 (Pasteurella multocida, UniProt Q9CLP3); type: biochemical
Protocol: For metal effects, various concentrations (1, 5, 10, or 20 mM) of MgCl2 or MnCl2 were used. Ethylenediaminetetraacetic acid (EDTA) as a chelating agent was used at two concentrations (1 or 10 mM). A reducing reagent dithiothreitol (DTT) was used at two concentrations (1 or 10 mM). Reaction without metal ions, EDTA, or DTT was used as a control. The reaction was quenched by adding 490 μl of pre-chilled acetonitrile:water (20:80). Samples were kept on ice until being analyzed by HPLC equipped with a fluorescent detector (315 nm excitation and 400 nm emission).

PmST1 [2] = target: T2, PmST1 (Pasteurella multocida, UniProt Q15KI8); settings: cited from earlier work
PmST2 [3] = settings: cited from earlier work
CstI = settings: truncated monofunctional α2-3-sialyltransferase CstI; cited from earlier work
PmST3Δ35-His6 [4] = target: T1, PmST3Δ35-His6; assay: Acceptor substrate specificity of PmST3Δ35-His6; type: biochemical; settings: acceptor 2 mM, CMP-Neu5Ac 2 mM, 37° C., pH 7.5
Protocol: All reactions were carried out in duplicate at 37° C. in Tris-HCl (200 mM, pH 7.5) containing an acceptor substrate (2 mM), CMP-Neu5Ac (2 mM), and PmST3Δ35-His6 (0.25 μg μl^−1). At 10 min or 4 hr, aliquots of reaction mixture were withdrawn and added to pre-chilled acetonitrile:water (20:80) (for reactions with acceptors containing 2-aminobenzoic acid (2AA) or 4-methylumbelliferone (MU) aglycone) or pre-chilled 95% ethanol (for reactions with acceptor containing Pro-triazole-C14 or pNP aglycone) and samples were kept on ice until being analyzed. Samples with acceptors containing 2AA (315 nm excitation and 400 nm emission) or MU (326 nm excitation and 372 nm emission) were analyzed by HPLC equipped with a fluorescent detector. Samples with acceptor containing Pro-triazole-C14 (214 nm) or pNP (300 nm) aglycone were centrifuged at 13,000 rpm for 5 min and analyzed by capillary electrophoresis (CE) equipped with a photodiode array (PDA) detector as described previously using sodium borate buffer (50 mM, pH 10.2) containing β-cyclcodextrin (20 mM) as a running buffer (Glycobiology, 21:1206-1216).

PmST2 [5] = settings: up to 20 mM; cited from earlier work
PmST1 [6] = target: T2, PmST1; settings: cited from earlier work; remark: listed apart in the source
[7] = system: CC(=O)N[C@H]1[C@H]([C@H](O)[C@H](O)CO)O[C@](OP(=O)(O)OC[C@H]2O[C@@H](n3ccc(N)nc3=O)[C@H](O)[C@@H]2O)(C(=O)O)C[C@@H]1O; assay: purified protein, by the assay type; settings: other: apparent, 37° C., Tris-HCl pH 7.5, other substrate fixed at 1 mM
Protocol: Reactions were carried out in duplicate at 37° C. for 7 min in a total volume of 10 μl in a Tris-HCl buffer (200 mM, pH 7.5).

[8] = Storage stability of purified truncated PmST3 proteins; type: physicochemical
Protocol: To further improve the expression of the soluble and active protein, three C-terminal truncated versions of PmST3 (PmST3Δ20-His6, PmST3Δ35-His6, and PmST3Δ45-His6 with the removal of C-terminal 20, 35, and 45 amino acid residues) were cloned into pET22b(+) vector as C-His6 (SEQ ID NO:37) tagged fusion proteins. […] For PmST3Δ45-His6, the expression of soluble protein was improved to the level of MBP fusion protein (4 mg of purified protein from 1 liter of cell culture by Ni^2+-NTA affinity chromatography). However, PmST3Δ45-His6 seemed to have stability issues. […] Under the same expression conditions, purified PmST3Δ35-His6 can be routinely obtained at a level of 29 mg from cell lysate from one liter of cell culture.

[9] = pH profile of α2-3-sialyltransferase activity; type: biochemical
Protocol: pH profile of PmST3Δ35-His6. Reactions were carried out in duplicate at 37° C. for 10 min. […] Buffers used were: MES-KOH (pH 4.0-6.5), Tris-HCl (pH 7.0-9.0), and CHES (pH 10.0). Enzymatic reaction was quenched by adding 490 μl of pre-chilled acetonitrile:water (20:80) mixture. The samples were kept on ice until being analyzed by a Shimadzu LC-2010A HPLC system equipped with a membrane on-line degasser, a temperature control unit, and a fluorescence detector (the excitation wavelength was set at 315 nm and the emission wavelength was set at 400 nm) using a reverse phase Premier C18 column (250×4.6 mm I.D., 5 μm particle size, Shimadzu) protected with a C18 guard column cartridge. Mobile phase used was 20% acetonitrile in water.

[10] = Comparison of three Pasteurella multocida sialyltransferases (activities and acceptor use); type: biochemical

With `O[C@H](CS)[C@H](O)CS` (racemic) [DTT, dithiothreitol] the “effect on enzyme activity” value (PmST3Δ35-His6 [1]; DTT 1 or 10 mM) was “Change of activity was not observed”.

For `CC(=O)N[C@H]1[C@H]([C@H](O)[C@H](O)CO)O[C@](OP(=O)(O)OC[C@H]2O[C@@H](n3ccc(N)nc3=O)[C@H](O)[C@@H]2O)(C(=O)O)C[C@@H]1O` [CMP-Neu5Ac, Cytidine 5′-monophosphate N-acetylneuraminic acid], the Km (PmST1 [2]) is given as 440 µM, the Km (PmST2 [3]) is given as 1300 ± 100 µM and the Km (CstI) is given as 400 µM.

In the case of `O=C(O)CN(CCN(CC(=O)O)CC(=O)O)CC(=O)O` [EDTA, Ethylenediaminetetraacetic acid], the “effect on enzyme activity” value (PmST3Δ35-His6 [1]; EDTA up to 10 mM) is reported as “did not affect”.

With `O=[N+]([O-])c1ccc(O[C@@H]2O[C@H](CO)[C@H](O)[C@H](O)[C@H]2O)cc1` [GalβpNP, p-nitrophenyl β-galactoside] the “% Conv. (10 min)” value (PmST3Δ35-His6 [4]) was <1% and the “% Conv. (4 h)” value (PmST3Δ35-His6 [4]) was 9.4 ± 0.4%.

With `Cc1cc(=O)oc2cc(O[C@@H]3O[C@H](CO)[C@@H](O[C@@H]4O[C@H](CO)[C@H](O)[C@H](O)[C@H]4O)[C@H](O)[C@H]3O)ccc12` [LacβMU, 4-methylumbelliferyl β-lactoside] the “% Conv. (10 min)” value (PmST3Δ35-His6 [4]) was 29.9 ± 1.2% and the “% Conv. (4 h)” value (PmST3Δ35-His6 [4]) was 65.6 ± 1.6%.

In the case of `[Cl-].[Cl-].[Mg+2]` [MgCl2], the “effect on enzyme activity” value (PmST3Δ35-His6 [1]; MnCl2 or MgCl2 up to 20 mM) is listed as “did not affect” and the “effect on enzyme activity” value (PmST2 [5]) is listed as “did not affect”.

In the case of `[Cl][Mn][Cl]` [MnCl2], the “effect on enzyme activity” value (PmST3Δ35-His6 [1]; MnCl2 or MgCl2 up to 20 mM) is given as “did not affect”, the “effect on enzyme activity” value (PmST2 [5]) is given as “did not affect” and the “effect on α2-3-sialyltransferase activity” value (PmST1 [6]; 5 mM or 10 mM) is given as “decreased”. The “effect on α2-3-sialyltransferase activity” value (PmST1 [6]; 20 mM) was “almost abolished”.

In the case of “PmST3Δ35-His6 (Pasteurella multocida subsp. multocida str. Pm70)”, the Km [7] is reported as 260 ± 10 µM, the Vmax [7] is reported as 44 µM/min and the kcat [7] is reported as 0.122 ± 0.00167 s⁻¹. For the same molecule, the kcat/Km [7] was 467 M⁻¹ s⁻¹.

B1: PmST3Δ45-His6: C-terminal 45 residue truncated, C-His6 tagged PmST3, SEQ ID NO: 12 (protein)
chain: MDKFAEHEIPKAVIVAGNGESLSQIDYRLLPKNYDVFRCNQFYFEERYFLGNKIKAVFFTPGVFLEQYYTLYHLKRNNEYFVDNVILSSFNHPTVDLEKSQKIQALFIDVINGYEKYLSKLTAFDVYLRYKELYENQRITSGVYMCAVAIAMGYTDIYLTGIDFYQASEENYAFDNKKPNIIRLLPDFRKEKTLFSYHSKDIDLEALSFLQQHYHVNFYSISPMSPLSKHFPIPTVEDDCETTFVAPLKENYINDILLVDKLAAALEHHHHHH
modifications: synthetic C-terminal truncated Pasteurella multocida sialyltransferase 3 (PmST3, Pm1174) C-His-6 tagged fusion protein PmST3delta45-His-6
In the case of B1, the “storage stability (precipitation)” value ([8]; after 3 days of storage at 4° C. after dialysis against 10% glycerol and 25 mM Tris-HCl, pH 7.5) is reported as “Precipitation was observed”.

B2: PmST3Δ35-His6: C-terminal 35 residue truncated, C-His6 tagged PmST3 α2-3-sialyltransferase, SEQ ID NO: 11 (protein)
chain: MDKFAEHEIPKAVIVAGNGESLSQIDYRLLPKNYDVFRCNQFYFEERYFLGNKIKAVFFTPGVFLEQYYTLYHLKRNNEYFVDNVILSSFNHPTVDLEKSQKIQALFIDVINGYEKYLSKLTAFDVYLRYKELYENQRITSGVYMCAVAIAMGYTDIYLTGIDFYQASEENYAFDNKKPNIIRLLPDFRKEKTLFSYHSKDIDLEALSFLQQHYHVNFYSISPMSPLSKHFPIPTVEDDCETTFVAPLKENYINDILLPPHFVYEKLGVDKLAAALEHHHHHH
modifications: synthetic C-terminal truncated Pasteurella multocida sialyltransferase 3 (PmST3, Pm1174) C-His-6 tagged fusion protein PmST3delta35-His-6
With B2 the “optimal pH range for α2-3-sialyltransferase activity” value ([9]; LacβPro2AA as acceptor) was 6.5-9.0, the “activity outside the optimal pH range” value ([9]; pH below 6.0 or 10.0) was “decreased dramatically” and the “storage stability (activity)” value ([8]; after 3 months of storage in 10% glycerol and 25 mM Tris-HCl (pH 7.5) buffer) was “remained active”. The “Use galactosyl glycolipids as acceptors” value [10] was “Yes”, the “Use galactosyl oligosaccharides as acceptors” value [10] was “Yes” and the α2-3-sialidase activity [10] was “No”. The α2-3-sialyltransferase activity [10] was “Yes”, the α2-3-trans-sialidase activity [10] was “No” and the α2-6-sialyltransferase activity [10] was “No”.
